The source of these data is DBAASP.

Some test systems named below: Escherichia coli B; Staphylococcus aureus; Bacillus subtilis 168; Pseudomonas aeruginosa; Candida albicans.
What all share (experiment): ≥ marks a high value that may be exact or a test limit, other limits are often not marked, values filed in µg/mL are converted to µM
Assay [1] concerns Staphylococcus aureus ATCC 2592.
Assay [2] has as its system Candida albicans ATCC 2002.
The test system of assay [3] is Escherichia coli ATCC 25922.
Assay [4] concerns Bacillus subtilis ATCC 6633.
For assay [5], the system named is Pseudomonas aeruginosa ATCC 27853.
Assay [6] has as its system Enterococcus faecalis ATCC 29212.
The subject of assay [7] is Staphylococcus aureus ATCC 29213.
The subject of assay [8] is Staphylococcus epidermidis ATCC 12228.
Assay [9] deals with Salmonella enterica subsp. enterica serovar Typhimurium C77-31.
Assay [10] deals with Salmonella enterica subsp. enterica serovar Pullorum C79-13.

≈ marks a conversion by molar mass, not a printed value.

Take `CC[C@H](C)[C@H](NC(=O)CNC(=O)CNC(=O)[C@H](C)NC(=O)[C@H](CCCCN)NC(=O)[C@H](C)N)C(=O)NCC(=O)NCC(=O)N[C@@H](Cc1cnc[nH]1)C(=O)N[C@H](C(=O)N[C@H](C(=O)NCC(=O)N[C@@H](CCC(N)=O)C(=O)N[C@H](C(=O)N[C@H](C(=O)NCC(=O)N[C@H](C(=O)N[C@@H](CCCN=C(N)N)C(=O)N[C@H](C(=O)N[C@@H](CCCN=C(N)N)C(=O)NCC(=O)N[C@@H](CC(C)C)C(=O)NCC(=O)NCC(=O)N[C@@H](CC(N)=O)C(=O)N[C@H](C(=O)O)C(C)C)[C@@H](C)CC)C(C)C)C(C)C)[C@@H](C)CC)[C@@H](C)CC)C(C)C` [AKAGGIGGHVIGQIVGVRIRGLGGNV]: the MIC stood at 2.57 µM (≈ 6.3 µg/mL) in [1], 20.4 µM (≈ 50 µg/mL) in assay [2] and 20.4 µM (≈ 50 µg/mL) in [3].
For `CC[C@H](C)[C@H](NC(=O)[C@H](CCCN=C(N)N)NC(=O)[C@@H](NC(=O)[C@@H]1CCCN1C(=O)[C@@H](NC(=O)[C@@H](NC(=O)[C@H](CCC(N)=O)NC(=O)[C@@H]1CCCN1C(=O)[C@@H](NC(=O)[C@@H](NC(=O)[C@H](Cc1cnc[nH]1)NC(=O)[C@@H]1CCCN1C(=O)[C@@H]1CCCN1C(=O)[C@@H](NC(=O)CNC(=O)CNC(=O)[C@H](C)NC(=O)[C@H](CCCCN)NC(=O)[C@H](C)N)[C@@H](C)CC)C(C)C)[C@@H](C)CC)[C@@H](C)CC)C(C)C)C(C)C)C(=O)N[C@@H](CCCN=C(N)N)C(=O)N1CCC[C@H]1C(=O)N[C@@H](CC(C)C)C(=O)N[C@@H](CS)C(=O)NCC(=O)N[C@@H](CC(N)=O)C(=O)N[C@H](C(=O)O)C(C)C` [AKAGGIPPHVIPQIVPVRIRPLCGNV], the results for the minimal inhibitory concentration (MIC) in assay [1], in assay [2] and in [3] were 4.66 µM (≈ 12.6 µg/mL), 9.25 µM (≈ 25 µg/mL) and 18.5 µM (≈ 50 µg/mL), respectively.
Take `CC[C@H](C)[C@H](NC(=O)[C@H](CCCCN)NC(=O)[C@@H]1CCCN1C(=O)[C@H](CC(C)C)NC(=O)[C@@H](NC(=O)[C@H](CO)NC(=O)CNC(=O)[C@H](CC(C)C)NC(=O)[C@H](C)NC(=O)CNC(=O)[C@H](CC(C)C)NC(=O)[C@@H](NC(=O)[C@H](CC(C)C)NC(=O)[C@@H]1CCCN1C(=O)[C@H](Cc1ccccc1)NC(=O)[C@@H](N)Cc1ccccc1)C(C)C)[C@@H](C)CC)C(=O)N[C@@H](Cc1ccccc1)C(N)=O` [FFPLVLGALGSILPKIF]: the MIC in [1] was 10.9 µM (≈ 20 µg/mL); in assay [4], 5.46 µM (≈ 9.99 µg/mL).
In the case of `CC[C@H](C)[C@@H]1NC(=O)[C@H](CO)NC(=O)[C@H](CCCCN)NC(=O)[C@H]([C@@H](C)O)NC(=O)[C@H](Cc2c[nH]c3ccccc23)NC(=O)[C@@H](NC(=O)CN)CSSC[C@@H](C(=O)N[C@@H](Cc2ccccc2)C(=O)O)NC(=O)[C@@H]2CCCN2C(=O)[C@H](CCCCN)NC(=O)[C@@H]2CCCN2C(=O)[C@@H]2CCCN2C1=O` [GCWTKSIPPKPCF], the MIC in assay [1] was 2.22 µM (≈ 3.25 µg/mL).
As to `CC[C@H](C)[C@H](NC(=O)[C@H](CO)NC(=O)[C@H](CC(C)C)NC(=O)[C@H](Cc1ccccc1)NC(=O)CN)C(=O)N[C@@H](CC(C)C)C(=O)N[C@@H](CCCCN)C(=O)N[C@@H](CCCCN)C(=O)N[C@H](C(=O)N[C@@H](CC(C)C)C(=O)N[C@@H](C)C(=O)N[C@@H](CCCCN)C(=O)N[C@H](C(=O)N[C@@H](CCSC)C(=O)N[C@@H](C)C(=O)N[C@@H](Cc1cnc[nH]1)C(=O)N[C@@H](CCSC)C(=O)N[C@@H](CCCCN)C(N)=O)C(C)C)C(C)C` [GFLSILKKVLAKVMAHMK], the MIC in the assay with Escherichia coli B came to 1.6 µM (≈ 3.22 µg/mL); in the assay with Staphylococcus aureus, 4.7 µM (≈ 9.46 µg/mL); against Bacillus subtilis 168 it was 1.3 µM (≈ 2.62 µg/mL); against Pseudomonas aeruginosa, 18.3 µM (≈ 36.8 µg/mL).
Taken in the same sequence, the figures for `CC[C@H](C)[C@H](NC(=O)[C@H](Cc1cnc[nH]1)NC(=O)[C@H](CCCCN)NC(=O)[C@H](CC(C)C)NC(=O)[C@H](CC(C)C)NC(=O)[C@H](CO)NC(=O)[C@H](CCSC)NC(=O)[C@H](Cc1c[nH]c2ccccc12)NC(=O)[C@H](CCCCN)NC(=O)CN)C(=O)N[C@@H](Cc1c[nH]c2ccccc12)C(=O)N[C@@H](CCCCN)C(N)=O` [GKWMSLLKHIWK] were 5 µM (≈ 7.63 µg/mL), 12.2 µM (≈ 18.6 µg/mL), 1.3 µM (≈ 1.98 µg/mL) and 25 µM (≈ 38.1 µg/mL).
Taken in the same sequence, the figures for `CC[C@H](C)[C@H](NC(=O)[C@H](CCCCN)NC(=O)[C@H](CO)NC(=O)[C@H](Cc1c[nH]c2ccccc12)NC(=O)[C@H](CCSC)NC(=O)CN)C(=O)N[C@@H](CC(C)C)C(=O)NCC(=O)N[C@@H](Cc1cnc[nH]1)C(=O)N[C@@H](CC(C)C)C(=O)N[C@@H](CCCCN)C(=O)N[C@@H](CCCN=C(N)N)C(N)=O` [GMWSKILGHLKR] were 28.3 µM (≈ 40.3 µg/mL), 100 µM (≈ 142 µg/mL), 2.2 µM (≈ 3.13 µg/mL) and 93 µM (≈ 133 µg/mL).
Taken in the same sequence, the figures for `CC[C@H](C)[C@H](NC(=O)[C@H](CC(C)C)NC(=O)[C@H](Cc1cnc[nH]1)NC(=O)[C@@H]1CCCN1C(=O)[C@H](CC(C)C)NC(=O)[C@@H](NC(=O)[C@H](CCCCN)NC(=O)[C@H](CO)NC(=O)[C@H](Cc1c[nH]c2ccccc12)NC(=O)[C@H](CCSC)NC(=O)CN)[C@@H](C)CC)C(=O)N[C@@H](CCCN=C(N)N)C(N)=O` [GMWSKILPHLIR] were 20 µM (≈ 29 µg/mL), over 100 µM, 3.3 µM (≈ 4.78 µg/mL) and over 100 µM.
For `CC[C@H](C)[C@H](NC(=O)[C@H](CCC(=O)O)NC(=O)[C@H](CCCCN)NC(=O)[C@H](CCSC)NC(=O)[C@H](CCCCN)NC(=O)[C@H](C)NC(=O)[C@H](CC(C)C)NC(=O)[C@H](Cc1ccccc1)NC(=O)[C@H](C)NC(=O)[C@H](CCC(N)=O)NC(=O)[C@H](CC(C)C)NC(=O)[C@H](CCCN=C(N)N)NC(=O)CN)C(=O)N[C@@H](C)C(=O)N[C@@H](C)C(=O)N[C@@H](CCC(N)=O)C(=O)N[C@H](C(=O)N[C@@H](CC(C)C)C(N)=O)[C@@H](C)O` [GRLQAFLAKMKEIAAQTL], the MIC in [5] was found to be 7.1 µM (≈ 14.1 µg/mL); in assay [4] it was 2.22 µM (≈ 4.41 µg/mL); in assay [3] it was 4.44 µM (≈ 8.84 µg/mL); against Candida albicans, 1.77 µM (≈ 3.52 µg/mL).
As for `CC[C@H](C)[C@H](N)C(=O)N[C@@H](CC(C)C)C(=O)NCC(=O)N[C@@H](CCCCN)C(=O)N[C@H](C(=O)N[C@H](C(=O)N[C@@H](CCCCN)C(=O)N[C@H](C(=O)N[C@H](C(=O)N[C@@H](CCCCN)C(N)=O)C(C)C)C(C)C)[C@@H](C)CC)[C@@H](C)CC` [ILGKIIKVVK], the MIC was at least 40 µM in the assay on Escherichia coli B, over 100 µM in the assay on Staphylococcus aureus, at least 40 µM with Bacillus subtilis 168 and over 100 µM against Pseudomonas aeruginosa.
`CC(C)C[C@H](NC(=O)[C@@H](NC(=O)[C@@H](NC(=O)[C@@H](N)CC(C)C)C(C)C)[C@@H](C)O)C(=O)N[C@H](C(=O)N[C@@H](Cc1ccccc1)C(=O)N[C@H](C(=O)NCC(=O)NCC(=O)NCC(=O)N[C@@H](Cc1c[nH]c2ccccc12)C(=O)N[C@@H](CCCCN)C(=O)N[C@@H](Cc1c[nH]c2ccccc12)C(=O)N[C@@H](CCCCN)C(=O)N[C@@H](Cc1c[nH]c2ccccc12)C(=O)N[C@@H](CCC(=O)O)C(=O)N[C@@H](CC(N)=O)C(=O)NCC(=O)N[C@@H](CCCCN)C(=O)N[C@@H](Cc1c[nH]c2ccccc12)C(=O)N[C@@H](CCCCN)C(=O)N[C@@H](Cc1c[nH]c2ccccc12)C(=O)N[C@@H](CCCCN)C(=O)N[C@@H](Cc1c[nH]c2ccccc12)C(=O)O)C(C)C)C(C)C` [LVTLVFVGGGWKWKWENGKWKWKW]: the MIC in [6] was 8 µM (≈ 24.2 µg/mL); in [7], over 128 µM; in assay [8], over 128 µM; in [9], at least 128 µM; in [10] it was at least 128 µM; in assay [3], 64 µM (≈ 193 µg/mL).
`CC[C@H](C)[C@H](NC(=O)[C@H](CCCCN)NC(=O)[C@H](CCCCN)NC(=O)[C@H](Cc1c[nH]c2ccccc12)NC(=O)[C@H](CC(N)=O)NC(=O)[C@@H](N)C(C)C)C(=O)N[C@@H](CC(C)C)C(=O)NCC(N)=O` [VNWKKILG]: the MIC was at least 100 µM in the assay with Escherichia coli B, over 100 µM against Staphylococcus aureus, at least 200 µM against Bacillus subtilis 168 and over 100 µM with Pseudomonas aeruginosa.
In the case of `CC[C@H](C)[C@H](NC(=O)[C@H](CC(C)C)NC(=O)[C@H](Cc1cnc[nH]1)NC(=O)CNC(=O)[C@H](CC(C)C)NC(=O)[C@@H](NC(=O)[C@H](CCCCN)NC(=O)[C@H](CO)NC(=O)[C@@H](N)Cc1c[nH]c2ccccc12)[C@@H](C)CC)C(=O)N[C@@H](CCCN=C(N)N)C(N)=O` [WSKILGHLIR], the MIC against Escherichia coli B is at least 100 µM; with Staphylococcus aureus it was over 100 µM; in the assay with Bacillus subtilis 168 it was 18.3 µM (≈ 22.4 µg/mL); against Pseudomonas aeruginosa, over 100 µM.

As usually defined, the MIC is the least concentration at which growth counts as inhibited. A lower MIC goes with inhibition by little substance.
